Tests used:
[1] = test system: acetic acid-induced behavioral response; test: abdominal constriction response test (acetic acid), Example 9; assay type: in vivo; details: B6C3F1 mice, FIG. 1; for inhibition of acetic acid-induced behavioral response: p.o. 30 min before i.p. 0.9% acetic acid, DMSO/2% methylcellulose, acetaminophen 75 to 300 mg/kg
Method: The example was performed to compare the antinociception (animal equivalent of analgesia) produced by the oral administration of 5-hydroxyoxindole vs acetaminophen in a standard model in mice. Male B6C3F1 mice (Taconic), 8-10 weeks of age were utilized. The mice were received at the facility at least one week prior to testing and housed in standard polycarbonate cages with filter tops. The experiments were done in accordance with the guidelines of the National Institutes of Health (NIH) and with the guidelines of the Committee for Research and Ethical Issues of the IASP (International Association for the Study of Pain) and were approved by the Institutional Animal Care and Use Committee (IACUC) of Taconic Laboratories. Four or five animals were housed per cage and food and water were provided ad libitum. Prior to initiation of the study, the mice were examined to assure adequate health and suitability. They were maintained on a 12 h/12 h light/dark cycle and room temperature was maintained between 20 and 23° C. with a relative humidity maintained between 30 and 70%. All compounds were tested in naïve animals. All compounds were administered orally 10 mL/kg, with a 30 minute pretreatment time. Each compound was dissolved in DMSO as a stock solution and mixed with methylcellulose (2%) before testing. Each compound was initially tested in five mice at a dose of 300 mg/kg in the abdominal constriction response test (Collier, British Journal of Pharmacology and Chemotherapy 32(2): 295-310, 1968). Based upon the results of the initial test, the dose-response relationship for each active compound was determined by measuring the level of analgesia produced by at least 3 escalating doses of the test compound. […] Vehicle or test compound was administered p.o. (per os) 30 min prior to an intraperitoneal (i.p.) injection of 0.9% acetic acid (10 mL/kg) and the number of responses (stretching of the hind limbs accompanied by a contraction of the abdominal muscles) to the acetic acid injection were counted over the subsequent 30 min period. […]

[2] = test system: acetic acid-induced writhing responses; test: acetic acid writhing test (abdominal irritant test), Example 10; assay type: in vivo, C57/B16 mice; details: C57/B16 mice
Method: This example compares the antinociception (animal equivalent of analgesia) produced by the oral administration of 5-hydroxy-7-methyloxindole vs. acetaminophen. Initial studies were performed using 10% DMSO/Cremophor™ as the vehicle. To enable a comparison with other datasets, 5-hydroxy-7-methyloxindole was subsequently tested using 6% Tween 20® reagent as the vehicle.
Male C57/B16 mice (Taconic), 8 weeks of age, were used in this study. The mice were received at Drexel University at least one week prior to testing and housed in standard polycarbonate cages with filter tops. Experiments were done in accordance with the guidelines of the National Institutes of Health and with the guidelines of the Committee for Research and Ethical Issues of IASP and were approved by the Animal Care and Use Committee of Drexel University College of Medicine. Four to five animals were housed per cage and food and water were provided ad libitum. Prior to initiation of the study, the animals were examined to assure adequate health and suitability. Mice were maintained on a 12/12 light/dark cycle and room temperature was maintained between 20 and 23° C. with a relative humidity maintained between 30% and 70%.
Compounds were administered orally 10 mL/kg, with a 30 minute pretreatment time. All compounds were tested in naïve animals. Each compound was dissolved in DMSO as a stock solution and mixed with Cremophor™ (1:1 v/v) before testing. The mixed solutions were diluted 1:4 with sterile water (the final concentration of DMSO/Cremophor™ reagent was 10%) immediately before administration to maximize the amount of compound in solution and improve the uniformity of any compound substance remaining in suspension. It is possible that some of the drug was in suspension at the time of administration. Each compound was initially tested in 5 mice at a dose of 300 mg/kg in the writhing test to assess their ability to alleviate abdominal pain. Based on the results of the initial test, the dose-response relationship for each active compound was determined by measuring the level of analgesia produced by at least 3 escalating doses of the test compound. The measurement of inhibition of writhing for acetaminophen and 5-hydroxy-7-methyloxindole were repeated using 6% Tween® 20 reagent as the vehicle. In this case, both compounds were clearly in suspension when administered to the animals.
A modified version of the standard abdominal irritant test was used to assess analgesia. Mice were habituated for 1 h in a transparent test box (5×5×10 inches) before any injections. Vehicle or test compound was administered p.o. (per os) 30 min prior to an intraperitoneal (i.p.) injection of 0.6% acetic acid (10 mL/kg) and the number of writhing responses (stretching of the hind limbs accompanied by a contraction of the abdominal muscles) to the acetic acid injection were counted over the subsequent 30 min period. The mice from each cage were randomly assigned to the dosing groups and the mice from each group were injected in a random order.
The one-way ANOVA was used to determine significant difference from the vehicle control treated animal. Dose response data for 5-hydroxy-7-methyloxindole was fit by non-linear regression analysis to a logit model to provide an estimate of ED50.

[3] = test system: liver (acute liver toxicity); test: liver histology (pathohistological examination); assay type: in vivo, C57BL/6 mice; details: mouse, in vivo
Method: In all experiments, mice were fasted overnight and then allocated randomly to receive either acetaminophen or equimolar dose of 5-hydroxy-7-methyloxindole by the intragastric route. Food was returned 4 h after the treatment. The two experimental groups were:
(a) Lower-dose group: Mice were administered acetaminophen (300 mg/kg) or 5-hydroxy-7-methyloxindole (324 mg/kg). After 7 h, the mice were sacrificed and liver and blood samples were taken for the analysis.
Seven hours after receiving the second injection, mice were sacrificed and liver and blood samples were taken for analysis.
A portion of the liver lobes of each mouse was fixed in 4% buffered paraformaldehyde, dehydrated in increasing concentrations of ethanol, and embedded in paraffin. Then, sections of tissue were cut to […] thickness using a rotary microtome, stained with hematoxylin and eosin, and then analyzed under a microscope.

Row | SMILES | inhibition of acetic acid-induced behavioral response [1] | dose needed for same analgesic efficacy as acetaminophen ([1]; p.o.) | inhibition of acetic acid-induced response (writhing) ([2]; p.o. 30 min before i.p. 0.6% acetic acid, 10% DMSO/Cremophor vehicle, 30 to 300 mg/kg, FIG. 2, 3) | inhibition of acetic acid-induced response (writhing) ([2]; p.o., 6% Tween 20 vehicle (suspension), 100 and 300 mg/kg, FIG. 5, 6) | liver injury on pathohistological examination [3]
1 | O=C1Cc2cc(O)ccc2N1 [Example 5-HI, 5-hydroxyoxindole] | statistically significant, dose-related inhibition | higher doses of 5-HI were required |  |  | 
2 | CC(=O)Nc1ccc(O)cc1 [acetaminophen, N-(4-Hydroxyphenyl)acetamide, reference compound] | robust and dose-related inhibition |  | robust and dose-related inhibition | Only a 300 mg/kg dose produced significant inhibition | acute liver injury in all of the mice

— patent US10537552B2, “Substituted 5-hydroxyoxindoles and their use as analgesics and fever reducers” (CARAFE DRUG INNOVATION, LLC, priority 2015, dated 2020)
